Legend:
[1] = test system: S. aureus strains (14 mecC MRSA, 2 mecA MRSA, ATCC 29213 MSSA); assay: In vitro time-kill assays at free peak and free trough concentrations; type: cell-based, Staphylococcus aureus
Protocol: Viable cell count was determined by serial dilution plating, including the use of 25 g/L charcoal suspension to limit antibiotic carryover. […] Time-kill assays were repeated at least twice independently; results presented are from a representative experiment.
Doubling dilution concentrations of comparator agents were likewise chosen to approximate their fCmax and fCmin levels in plasma when administered at approved dosages for complicated skin and skin structure infections, using pharmacokinetic data and protein binding values from their respective package inserts (DAP [Cubicin®]; LZD [Zyvox®]; VAN [Vancocin®]; Table 3).

[2] = test system: S. aureus strains (14 mecC MRSA, 2 mecA MRSA, ATCC 29213 MSSA); assay: Broth microdilution MIC determination; type: cell-based, Staphylococcus aureus; details: Staphylococcus aureus
Protocol: The S. aureus (SA) strains used in this study were: ATCC 43300 (mecA methicillin-resistant SA [MRSA]); ATCC 33591 (mecA MRSA), ATCC 29213 (methicillin-susceptible SA; quality control strain) and 14 mecC MRSA obtained from the Staten Serum Institute (Copenhagen, Denmark).
Tests with oritavancin included polysorbate-80 (final test concentration of 0.002%) as described (CLSI 2012a; Arhin et al., 2008). Tests with daptomycin included CaCl2 at a concentration of 50 mg/L. MICs were read after 24 h incubation.

[3] = SOLO I and SOLO II combined, safety; type: in vivo, human
[4] = SOLO I Phase 3 trial, safety assessments (safety population); type: in vivo, human
Text: The study design was consistent with current guidelines from FDA (U.S. Food and Drug Administration. Guidance for Industry Acute Bacterial Skin and Skin Structure Infections: Developing Drugs for Treatment (DRAFT GUIDANCE). Available via Internet at the URL containing: fda.gov/downloads/Drugs/GuidanceComplianceRegulatoryInformation/Guidances/ucm071185.p df) and EMA (European Medicines Agency Committee for Medicinal Products for Human Use. Addendum to the note for guidance on evaluation of medicinal products indicated for treatment of bacterial infections (CHMP/EWP/558/95 REV 2) to address indication-specific clinical data (draft). 2012. Available via Internet at the URL containing: ema.europa.eu/docs/en_GB/document_library/Scientific_guideline/2012/07/WC500129443.pdf) and Foundation for National Institutes of Health guidance was considered for analyses (Talbot G H etl. Clin Infect Dis. 2012. 55(8):1114-1121). The protocol was approved by institutional review boards/ethics committees and all patients provided written informed consent. The study was conducted from January 2011 through October 2012 at 46 study centers in Mexico, Spain, Germany, Romania, Russia, Ukraine, Israel, India, and the United States. […] Aztreonam and metronidazole were permitted for gram-negative and anaerobic cover, respectively.
Safety assessments (Safety Population) included vital signs, electrocardiogram (ECG), clinical chemistry and hematology parameters, reporting of adverse events (AEs) and serious adverse events (SAEs). Treatment-emergent adverse events (TEAEs) were defined as AEs with onset or worsening severity at or after the first dose of study drug through the Safety Follow-up Visit (Day 60+7 days).
For safety assessments, descriptive analyses were performed in the safety population for all safety parameters by treatment group.
The intent-to-treat (ITT) population included all patients randomized into the study. The modified intent-to-treat (mITT) was the primary population for all the efficacy analyses and included all randomized patients who received any study drug. The clinically evaluable (CE) population consisted of all mITT patients who met the inclusion/exclusion criteria, received the full-course of randomized study treatment (for a minimum of 7 days), and had investigator assessment for clinical cure at PTE. The CE population was used to confirm the efficacy analyses. The microbiologically ITT (MicroITT) population consisted of all mITT patients with baseline gram-positive pathogen(s) known to cause ABSSSI and it was used for the secondary efficacy analyses. The microbiologically evaluable (MicroE) population was used to confirm the secondary efficacy analyses and consisted of all patients who were in both the MicroITT and CE populations. The safety population was the primary population for all the safety analyses, and consisted of all patients who were dosed with study drug, irrespective of randomization. Treatment classification was based on the actual treatment received.

[5] = SOLO II Phase 3 trial, safety; type: in vivo, human
Text: Safety profiles, measured at any point up to 60 days after treatment, were similar across treatment groups in SOLO II.

CN[C@H](CC(C)C)C(=O)N[C@H]1C(=O)N[C@@H](CC(N)=O)C(=O)N[C@H]2C(=O)N[C@H]3C(=O)N[C@H](C(=O)N[C@H](C(=O)O)c4cc(O)cc(O)c4-c4cc3ccc4O)[C@H](O)c3ccc(c(Cl)c3)Oc3cc2cc(c3O[C@@H]2O[C@H](CO)[C@@H](O)[C@H](O)[C@H]2O[C@H]2C[C@](C)(N)[C@H](O)[C@H](C)O2)Oc2ccc(cc2Cl)[C@H]1O [Vancomycin, vancomycin]
3.5%: Incidence of diarrhea ([4]; safety population)
4.2%: Patients with adverse events leading to study drug discontinuation [3]
5.8%: Proportion of patients experiencing a TEAE that led to discontinuation of the study drug [4]
28.4%: Treatment emergent adverse events considered by investigators as related to study drug ([3]; p=0.002)
7.3%: Frequency of SAEs [4]
25.5%: Treatment emergent adverse events considered by investigators as related to study drug [5]
1 µg/mL: MIC90 [2] | MIC ([2]; 57147 MRSA (mecC)) | MIC ([2]; 70611 MRSA (mecC)) | MIC ([2]; 73348 MRSA (mecC)) | MIC ([2]; 73415 MRSA (mecC)) | MIC ([2]; 73617 MRSA (mecC)) | MIC ([2]; 73829 MRSA (mecC)) | MIC ([2]; 75814 MRSA (mecC)) | MIC ([2]; 76918 MRSA (mecC)) | MIC ([2]; 77431 MRSA (mecC)) | MIC ([2]; 77601 MRSA (mecC)) | MIC ([2]; 77950 MRSA (mecC)) | MIC ([2]; 77964 MRSA (mecC)) | MIC ([2]; 78085 MRSA (mecC)) | MIC ([2]; 78651 MRSA (mecC)) | MIC ([2]; ATCC 29213 (MSSA)) | MIC ([2]; ATCC 29213 / ATCC 33591 / MRSA / MSSA, ATCC 33591 MRSA (mecA)) | MIC ([2]; ATCC 29213 / ATCC 43300 / MRSA / MSSA, ATCC 43300 MRSA (mecA)) | MIC ([2]; all strains tested)
7.1%: Infusion site reaction AEs ([4]; post-hoc analysis)
56.9%: Patients reported to experience at least one adverse event ([3]; safety population)
6 to 24 hours: Time to achieve 3 log kill ([1]; all tested strains, both fCmin and fCmax)
8.9%: Incidence of nausea ([4]; safety population)
3.7%: Incidence of vomiting ([4]; safety population)
50.2%: Patients reported to experience at least one adverse event ([5]; up to 60 days after treatment)
2 patients: Discontinuation of study drug due to drug hypersensitivity [4] | Discontinuation of study drug due to pruritus [4] | Discontinuation of study drug due to rash [4] | Discontinuation of study drug due to sepsis [4] | Discontinuation of study drug due to skin bacterial infection [4] | Histamine-like reactions (Red Man syndrome) [4]
5 patients: Discontinuation of study drug due to hypersensitivity [4]
19.1%: Skin and subcutaneous tissue adverse events [4]
3 patients: Discontinuation of study drug due to cellulitis [4]
9.1%: Pruritus AEs ([4]; post-hoc analysis)
6-24 h: Time to cidality (≧3 log decrease) ([1]; 57147 (mecC), vancomycin ƒCmax 16 mg/L) | Time to cidality (≧3 log decrease) ([1]; 57147 (mecC), vancomycin ƒCmin 4 mg/L) | Time to cidality (≧3 log decrease) ([1]; 70611 (mecC), vancomycin ƒCmax 16 mg/L) | Time to cidality (≧3 log decrease) ([1]; 70611 (mecC), vancomycin ƒCmin 4 mg/L) | Time to cidality (≧3 log decrease) ([1]; 73348 (mecC), vancomycin ƒCmax 16 mg/L) | Time to cidality (≧3 log decrease) ([1]; 73348 (mecC), vancomycin ƒCmin 4 mg/L) | Time to cidality (≧3 log decrease) ([1]; 73415 (mecC), vancomycin ƒCmax 16 mg/L) | Time to cidality (≧3 log decrease) ([1]; 73415 (mecC), vancomycin ƒCmin 4 mg/L) | Time to cidality (≧3 log decrease) ([1]; 73617 (mecC), vancomycin ƒCmax 16 mg/L) | Time to cidality (≧3 log decrease) ([1]; 73617 (mecC), vancomycin ƒCmin 4 mg/L) | Time to cidality (≧3 log decrease) ([1]; 73829 (mecC), vancomycin ƒCmax 16 mg/L) | Time to cidality (≧3 log decrease) ([1]; 73829 (mecC), vancomycin ƒCmin 4 mg/L) | Time to cidality (≧3 log decrease) ([1]; 75814 (mecC), vancomycin ƒCmax 16 mg/L) | Time to cidality (≧3 log decrease) ([1]; 75814 (mecC), vancomycin ƒCmin 4 mg/L) | Time to cidality (≧3 log decrease) ([1]; 76918 (mecC), vancomycin ƒCmax 16 mg/L) | Time to cidality (≧3 log decrease) ([1]; 76918 (mecC), vancomycin ƒCmin 4 mg/L) | Time to cidality (≧3 log decrease) ([1]; 77431 (mecC), vancomycin ƒCmax 16 mg/L) | Time to cidality (≧3 log decrease) ([1]; 77431 (mecC), vancomycin ƒCmin 4 mg/L) | Time to cidality (≧3 log decrease) ([1]; 77601 (mecC), vancomycin ƒCmax 16 mg/L) | Time to cidality (≧3 log decrease) ([1]; 77601 (mecC), vancomycin ƒCmin 4 mg/L) | Time to cidality (≧3 log decrease) ([1]; 77950 (mecC), vancomycin ƒCmax 16 mg/L) | Time to cidality (≧3 log decrease) ([1]; 77950 (mecC), vancomycin ƒCmin 4 mg/L) | Time to cidality (≧3 log decrease) ([1]; 77964 (mecC), vancomycin ƒCmax 16 mg/L) | Time to cidality (≧3 log decrease) ([1]; 77964 (mecC), vancomycin ƒCmin 4 mg/L) | Time to cidality (≧3 log decrease) ([1]; 78085 (mecC), vancomycin ƒCmax 16 mg/L) | Time to cidality (≧3 log decrease) ([1]; 78085 (mecC), vancomycin ƒCmin 4 mg/L) | Time to cidality (≧3 log decrease) ([1]; 78651 (mecC), vancomycin ƒCmax 16 mg/L) | Time to cidality (≧3 log decrease) ([1]; 78651 (mecC), vancomycin ƒCmin 4 mg/L) | Time to cidality (≧3 log decrease) ([1]; ATCC 29213 (MSSA), vancomycin ƒCmax 16 mg/L) | Time to cidality (≧3 log decrease) ([1]; ATCC 29213 (MSSA), vancomycin ƒCmin 4 mg/L) | Time to cidality (≧3 log decrease) ([1]; ATCC 33591 (mecA), vancomycin ƒCmax 16 mg/L) | Time to cidality (≧3 log decrease) ([1]; ATCC 33591 (mecA), vancomycin ƒCmin 4 mg/L) | Time to cidality (≧3 log decrease) ([1]; ATCC 43300 (mecA), vancomycin ƒCmax 16 mg/L) | Time to cidality (≧3 log decrease) ([1]; ATCC 43300 (mecA), vancomycin ƒCmin 4 mg/L)
two: Patients who died during the study ([4]; all determined unrelated to study drug)
4: Cellulitis SAEs considered new events [4]
7.9%: Incidence of headache ([4]; safety population)

Source: patent publication US20160101148A1, “TREATMENT AND PREVENTION OF BACTERIAL SKIN INFECTIONS USING ORITAVANCIN” (priority 2013, published 2016)
